From PubChem BioAssay (NCI)
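Five concentrations, 48 hours, 96-well plates. Abbreviation: GI50, concentration required for 50% inhibition of growth. TGI: total growth inhibition.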

Columns and labels:
Experiment in all cases: NCI anticancer screen, dose series, 48 h
RXF 393 renal = tested on: RXF 393 renal
HOP-62 NSCLC = tested on: HOP-62 NSCLC
COLO 205 colon = tested on: COLO 205 colon
UO-31 renal = tested on: UO-31 renal
SK-MEL-28 melanoma = tested on: SK-MEL-28 melanoma
HT29 colon = tested on: HT29 colon
A549 NSCLC = tested on: A549 NSCLC
MOLT-4 leukemia = tested on: MOLT-4 leukemia
OVCAR-3 ovarian = tested on: OVCAR-3 ovarian
CAKI-1 renal = tested on: CAKI-1 renal

Row | SMILES | TGI (RXF 393 renal) [µM] | TGI (HOP-62 NSCLC) [µM] | TGI (COLO 205 colon) [µM] | TGI (UO-31 renal) [µM] | TGI (SK-MEL-28 melanoma) [µM] | TGI (HT29 colon) [µM] | TGI (A549 NSCLC) [µM] | TGI (MOLT-4 leukemia) [µM] | TGI (OVCAR-3 ovarian) [µM] | GI50 (RXF 393 renal) [µM] | GI50 (HOP-62 NSCLC) [µM] | GI50 (UO-31 renal) [µM] | GI50 (SK-MEL-28 melanoma) [µM] | GI50 (HT29 colon) [µM] | GI50 (A549 NSCLC) [µM] | GI50 (MOLT-4 leukemia) [µM] | GI50 (OVCAR-3 ovarian) [µM] | GI50 (COLO 205 colon) [µM] | GI50 (CAKI-1 renal) [µM] | TGI (CAKI-1 renal) [µM]
1 | COc1ccc(C2CCc3cc4c(cc3/C2=N/OC(C)=O)OCO4)cc1OC (configuration not stated) | 54 | > 100 | 63.5 | 51.1 | 57.4 | > 100 | 80.1 | 52 | 55.9 | – | – | – | – | – | – | – | – | – | – | –
2 | COC(=O)CC(C(C(C)=O)C(=O)OCc1ccccc1)N1C(=O)OCC1c1ccccc1 (configuration not stated) | > 100 | > 100 | > 100 | > 100 | > 100 | > 100 | > 100 | > 100 | > 100 | – | – | – | – | – | – | – | – | – | – | –
3 | CC(=O)OC1CC2C(=O)C(=O)C1(C)C2(C)C (configuration not stated) | – | > 100 | > 100 | > 100 | > 100 | > 100 | > 100 | > 100 | > 100 | – | – | – | – | – | – | – | – | – | – | –
4 | COc1cc(NC(=O)Nc2cnc(Nc3ccc(N4CCOCC4)cc3)nc2Oc2cccc(OC)c2)cc(OC)c1 | 1.82 | 6.9 | – | 6.74 | 6.21 | 3.15 | 6.47 | > 50 | 3.25 | 0.887 | 1.76 | 1.3 | 1.61 | 1.1 | 1.99 | 36.8 | 1.27 | – | – | –
5 | CSC1=NCC2(S1)c1ccccc1N(C(=O)OC(C)(C)C)C2N1CCCCC1 (configuration not stated) | > 100 | > 100 | – | > 100 | > 100 | > 100 | > 100 | > 100 | – | 78 | 23.4 | 78.7 | > 100 | > 100 | > 100 | > 100 | – | – | – | –
6 | CC1CC2(C)CC(=O)C1C1C(=O)N(CCN3CCCCC3)C(=O)C12 (configuration not stated) | – | > 100 | > 100 | > 100 | – | > 100 | > 100 | > 100 | – | – | > 100 | > 100 | – | > 100 | > 100 | > 100 | – | > 100 | > 100 | > 100
7 | CCCCCCCCCCCCOP(N)(=O)OCCCCCCCCCCCC | > 100 | > 100 | > 100 | > 100 | > 100 | – | > 100 | > 100 | > 100 | – | – | – | – | – | – | – | – | – | – | –
8 | Cc1c(C(=O)CSc2nc3ccccc3[nH]2)c(=O)n(-c2ccccc2)n1C | – | > 100 | > 100 | > 100 | > 100 | > 100 | > 100 | > 100 | > 100 | – | – | – | – | – | – | – | – | – | – | > 100
9 | C(/Cc1ccc2c(c1)OCO2)=N\NC1=NCCCN1 | > 100 | > 100 | > 100 | > 100 | > 100 | > 100 | > 100 | 55.2 | > 100 | – | – | – | – | – | – | – | – | – | – | –
10 | CS(=O)(=O)NC12CCC(c3ccccc31)c1ccccc12 | – | > 100 | > 100 | > 100 | > 100 | > 100 | > 100 | > 100 | > 100 | – | – | – | – | – | – | – | – | – | – | > 100
11 | N#CC1C=Cc2ccccc2N1C(=O)Oc1ccccc1 (configuration not stated) | > 100 | – | > 100 | > 100 | > 100 | > 100 | > 100 | 93.8 | – | – | – | – | – | – | – | – | – | – | – | > 100
12 | CCN(CC)CCN(C(=O)C(C)(C)C)c1ccccc1N | > 100 | > 100 | – | > 100 | > 100 | > 100 | > 100 | > 100 | > 100 | – | – | – | – | – | – | – | – | – | – | > 100
13 | CC1(C)CC[C@]2(C(N)=O)CC[C@]3(C)C(=CC[C@@H]4[C@@]5(C)C/C(=C/c6ccncc6)C(=O)C(C)(C)[C@@H]5CC[C@]43C)[C@@H]2C1 | 3.05 | 4.71 | – | 2.91 | 3.39 | – | 8.22 | 6.02 | 3.45 | 1.59 | 2.01 | 1.48 | 1.81 | – | 2.35 | 2 | 1.87 | – | – | –
14 | CCCCCCCCCCCCCc1nn[nH]n1 | 43.4 | 32.8 | 36.6 | 29.5 | 31.7 | 33 | 40.7 | – | 32.6 | – | – | – | – | – | – | – | – | – | – | –
15 | CCOc1ccc(C(CN2CCOCC2)C(C)=O)cc1OC (configuration not stated) | 41.1 | 40.4 | 19.6 | 27.8 | 35.8 | 34.8 | 51.7 | > 100 | – | – | – | – | – | – | – | – | – | – | – | 23.4
16 | COc1nc(NC2OC(COC(C)=O)C(OC(C)=O)C(OC(C)=O)C2OC(C)=O)c(-c2csc(N)n2)c(=O)n1C (configuration not stated) | – | > 100 | > 100 | > 100 | > 100 | > 100 | > 100 | > 100 | > 100 | – | – | – | – | – | – | – | – | – | – | > 100
17 | COC(=O)/C(=N\NC(N)=S)C(C#N)c1ccccc1 (configuration not stated) | > 100 | > 100 | > 100 | > 100 | > 100 | > 100 | > 100 | > 100 | > 100 | – | – | – | – | – | – | – | – | – | – | –
18 | C/C=C1\C(=O)OC2CCN3CCC(COC(=O)C(C)(O)C(C)C1O)C23 (configuration not stated) | – | – | > 100 | > 100 | > 100 | > 100 | > 100 | > 100 | – | – | – | – | – | – | – | – | – | – | – | > 100
19 | Cc1ccc(NC(=O)CC(=O)N2N=C(N(CCC#N)c3cccc(C)c3)CC2c2ccccc2)cc1 (configuration not stated) | > 100 | > 100 | > 100 | > 100 | > 100 | > 100 | > 100 | > 100 | > 100 | – | – | – | – | – | – | – | – | – | – | –
20 | CCC1CNC(=O)CC1CC(=O)OC (configuration not stated) | > 100 | > 100 | – | > 100 | > 100 | – | > 100 | > 100 | > 100 | – | – | – | – | – | – | – | – | – | – | > 100
21 | O=C(Cc1csc2nc(-c3ccc(Br)cc3)cn12)N/N=C/c1ccc(O)cc1 | – | 53.2 | > 100 | > 100 | > 100 | > 100 | 33.7 | – | 49.4 | – | 18.1 | 26.3 | 60 | 49.9 | 10.6 | 4.21 | 24.2 | 43.3 | 14.9 | 49.3
